In article PMC7551886, “Antitumour Effects of Astaxanthin and Adonixanthin on Glioblastoma” (Marine Drugs, 2020):

What was measured:
MMP-2 = test: Immunoblotting, MMP-2 expression in GL261; assay type: cell-based, mouse; conditions: GL261, 10 µM, 48 h
Procedure: (§1) GL261 cell was seeded at 2.5 × 10^4 cells per well in 24-well plates with culture medium supplemented with 10% FBS. After 24 h of incubation, the medium was changed to DMEM containing 10% FBS and 0.1%DMSO PBS, 300 μM temozolomide, 10 μM astaxanthin, or 10 μM adonixanthin was added for 6 and 48 h. Cells were lysed in a special buffer (RIPA buffer R0278; Sigma-Aldrich, St. Louis, MO, USA) with a protease inhibitor cocktail (Sigma-Aldrich), phosphatase inhibitor cocktails 2 and 3 (Sigma-Aldrich), and sample buffer (Wako, Osaka, Japan). The protein concentration was determined by comparison with a known concentration of bovine serum albumin using the BCA Protein Assay Kit (Thermo Fisher Scientific). The amount of total protein was 2 μg. […] The band intensity was […] using an Immuno Star LD (Wako). Band intensity was measured using an LAS-4000 UV mini Luminescent Image Analyzer (Fujifilm, Tokyo Japan) and Multi Gauge Version 3.0 (Fujifilm). The phosphorylation of ERK1/2, Akt, and p38 MAPK was measured by normalizing against total ERK1/2, total Akt, and total p38 MAPK. […]

[1] = test system: p38 mitogen-activated protein kinase; test: Immunoblotting, phosphorylation of p38 MAPK in GL261; assay type: cell-based, mouse; conditions: GL261, 10 µM, 48 h
Procedure: as §1

GL261 cells = test: BrdU cell proliferation assay; assay type: cell-based, mouse; conditions: GL261, 10 µM treatment for 72 h; control group 60.56 ± 1.40%
Procedure: GL261 cells were seeded onto 96-well plates at a density of 2 × 10^3 cells/well with DMEM supplemented with 10% FBS and then incubated for 24 h, after which the culture medium was changed to DMEM containing 10% FBS. Then, astaxanthin, adonixanthin, or temozolomide (Tokyo Chemical Industry Co., Ltd., Tokyo, Japan) were added to the culture. After 72 h of culture, the culture medium was changed to DMEM containing 10% FBS and treated with BrdU at 10 µM for 3 h. After that, immunocytochemistry was performed according to the protocol of anti-BrdU antibody (abcam, ab6326).

U251MG cells = test: Wound healing (cell migration) assay in U251MG; assay type: cell-based, human; conditions: 10 µM, 48 h
Procedure: The cell migration assay was conducted as previously described. GL261 cells and U251 cells (2.0 × 10^4 cells per well) were plated in a 12-well plate (BD Biosciences, Tokyo, Japan) with culture medium supplemented with 10% FBS. After 24 h of incubation, the medium was changed to DMEM containing 1% FBS. After 6 h, wounds were scratched by a P1000 pipette tip and washed with phosphate-buffered saline (PBS) to eliminate cell debris. Then, fresh medium was added with 10 µM astaxanthin or adonixanthin. Pictures were taken at 48 h and these scratched areas were measured using an All-in-One Fluorescence Microscope (BZ-X710; Keyence, Osaka, Japan). The cell migration rate was measured the area of the wound before migration (S0) and after migration (S1) and calculated […]. The control group was then standardized to be 100%. Wound widths at 0 h were created within 1 to 1.5 mm and data were excluded if they were not suitable for that width.

Akt = test: Immunoblotting, phosphorylation of Akt in GL261; assay type: cell-based, mouse; conditions: GL261, 10 µM, 6 h post-treatment
Procedure: as §1

Fibronectin mRNA = test: qRT-PCR of Fibronectin mRNA in GL261; assay type: cell-based, mouse; conditions: GL261, 10 µM, 48 h
Procedure: To evaluate the effect of astaxanthin and adonixanthin on the expression of Fibronectin mRNA expression, we performed quantitative real-time reverse transcription polymerase chain reaction (qRT-PCR) analysis. GL261 cell was seeded at 2.5 × 10^4 cells well in 24-well plates with culture medium supplemented with 10% FBS. After 24 h of incubation, the medium was changed to DMEM containing 10% FBS and 0.1% DMSO PBS, 300 μM temozolomide, 10 µM astaxanthin, or 10 µM adonixanthin was added for 48 h. After 48 h of treatment, RNA was isolated from GL261 cells using Nucleo Spin RNA II (Takara, Shiga, Japan). RNA concentrations were determined using NanoVue Plus (GE Healthcare Japan, Tokyo, Japan). Single-strand cDNAs were synthesized from the isolated RNAs via reverse transcription with a PrimeScript RT Reagent Kit (Perfect Real Time; Takara). Quantitative real-time RT-PCR was performed using TB Green Premix Ex Taq II (Tli RNaseH Plus; Takara) and a TP800 Thermal Cycler Dice Real Time System (Takara). All procedures were carried out in accordance with the manufacturer’s instructions. […] The results are expressed as relative gene expression levels normalized to that of β-actin.

cyclin D1 = test: Immunoblotting, cyclin D1 expression in GL261; assay type: cell-based, mouse; conditions: GL261, 10 µM, 48 h
Procedure: as §1

phosphorylation of p38 MAPK [1] | SMILES | MMP-2 expression (MMP-2) | BrdU-positive cell rate (GL261 cells) [%] | suppression of cell migration (U251MG cells) [%] | phosphorylation of Akt (Akt) | mRNA level of fibronectin (Fibronectin mRNA) | expression of cyclin D1 (cyclin D1)
increased | CC1=C(/C=C/C(C)=C/C=C/C(C)=C/C=C/C=C(C)/C=C/C=C(C)/C=C/C2=C(C)C(=O)[C@@H](O)CC2(C)C)C(C)(C)C[C@H](O)C1 [Adonixanthin, adonixanthin] | decreased | 41.31 ± 1.51 | 26.32 ± 5.14 | decreased | decreased | decreased
increased | CC1=C(/C=C/C(C)=C/C=C/C(C)=C/C=C/C=C(C)/C=C/C=C(C)/C=C/C2=C(C)C(=O)[C@@H](O)CC2(C)C)C(C)(C)C[C@H](O)C1=O [Astaxanthin, astaxanthin] | decreased | 49.13 ± 2.66 | 21.15 ± 1.84 | decreased | decreased | decreased
